The source of these data is ChEMBL document CHEMBL1129671, “Substituted (pyrroloamino)pyridines: potential agents for the treatment of Alzheimer's disease” (J Med Chem, 1996).

In general, IC50 refers to the point on the concentration scale where inhibition reaches its midpoint. As usually defined, the ED50 is the dose at which the effect has come halfway, by size or by number of responders.

The target in assay [1] is Muscarinic acetylcholine receptor. The assay is described as follows: Inhibition of radioligand [3H]QNB binding (competitive inhibition) to muscarinic acetylcholine receptor in the rat forebrain in the absence of zinc.
For assay [2], the system named is Mus musculus. The assay is described as follows: Evaluated for the prevention of TBZ ptosis by intraperitoneal administration in mice. The class given is functional. Particulars: ip.
The target of assay [3] is Muscarinic acetylcholine receptor. The assay is described as follows: Inhibition of radioligand [3H]QNB binding to muscarinic acetylcholine receptor in the rat forebrain in the presence of zinc.
Assay [4] has as its system Mus musculus. The assay is described as follows: Antagonistic activity against scopolamine-induced behavioral deficits in mice by subcutaneous administration at a concentration of 0.31 mg/kg. The assay is classed as functional.
Assay [5] relates to Mus musculus. The assay is described as follows: Antagonistic activity against scopolamine-induced behavioral deficits in mice by subcutaneous administration at a concentration of 0.63 mg/kg. The assay is classed as functional.
Assay [6] has as its system Mus musculus. The assay can be described thus: Antagonistic activity against scopolamine-induced behavioral deficits in mice by subcutaneous administration at a concentration of 0.16 mg/kg. The assay is classed as functional.
The test system of assay [7] is Mus musculus. The assay is described as follows: Antagonistic activity against scopolamine-induced behavioral deficits in mice by subcutaneous administration at a concentration of 0.04 mg/kg. The assay is classed as functional.
For assay [8], the system named is Mus musculus. The assay can be described thus: Antagonistic activity against scopolamine-induced behavioral deficits in mice by subcutaneous administration at a concentration of 0.02 mg/kg. The assay is classed as functional.
For assay [9], the system named is Mus musculus. The assay is described as follows: Antagonistic activity against scopolamine-induced behavioral deficits in mice by subcutaneous administration at a concentration of 2.5 mg/kg. The class given is functional.
For assay [10], the system named is Mus musculus. The assay can be described thus: Antagonistic activity against scopolamine-induced behavioral deficits in mice by subcutaneous administration at a concentration of 1.25 mg/kg. The class given is functional.
Assay [11] deals with Mus musculus. The assay is described as follows: Antagonistic activity against scopolamine-induced behavioral deficits in mice by subcutaneous administration at a concentration of 5.0 mg/kg. The assay is classed as functional.
The test system of assay [12] is Mus musculus. The assay is described as follows: (§1) Antagonistic activity against scopolamine-induced behavioral deficits in mice by subcutaneous administration at a concentration of 5 mg/kg. The assay is classed as functional.
The subject of assay [13] is Mus musculus. Described as §1. The class given is functional. This is another data set of the same source.

Consider `O=Cc1cccn1Nc1ccncc1`, for which the IC50 was 86 µM in [1] and 721 µM in assay [3]. In the assay on Mus musculus [2], this compound registered an ED50 greater than 20 mg/kg. The results for the Response with Mus musculus [4], in the assay on Mus musculus [5] and with Mus musculus [6] were 27%, 43% and 20%, respectively.

Consider `C#CCN(c1ccncc1)n1cccc1`, for which the Response with Mus musculus [7] was 27%; in the assay with Mus musculus [4], 27%; in the assay with Mus musculus [8], 20%; in the assay on Mus musculus [6], 47%. For the same compound, the IC50 in assay [1] was 9 µM; in assay [3] it was 76.4 µM. Further, in the assay with Mus musculus [2], the ED50 is greater than 20 mg/kg.

Compound `CCCN(c1ccncc1)n1cccc1Cl` registered a Response in the assay with Mus musculus [9] of 27%. The IC50 in assay [1] was determined as 2.6 µM; in [3], 8.6 µM. The compound also returned an ED50 in the assay with Mus musculus [2] greater than 20 mg/kg.

For the compound `CC(O)c1ccn(N(C)c2ccncc2)c1` (centres undefined), the IC50 in assay [1] was determined as 11 µM; in [3], 24 µM. In addition, it took a dose of 10 mg/kg to reach the 50% effect level in the assay on Mus musculus [2] (ED50). The values for the Response in the assay on Mus musculus [4], with Mus musculus [10] and with Mus musculus [6] were 20%, 27% and 20%, respectively.

Regarding `CC(=O)N(c1ccncc1)n1cccc1`, the IC50 in assay [3] is greater than 1000 µM.

Take `CCCN(c1ccncc1)n1cccc1`: the Response is 27% in the assay on Mus musculus [9], 27% in the assay on Mus musculus [5] and 33% in the assay on Mus musculus [6]. Moreover, the IC50 stood at 6.5 µM in [1] and 21.5 µM in assay [3]. This compound also came in with an ED50 in the assay with Mus musculus [2] greater than 20 mg/kg.

Take `CCc1cccn1N(C)c1ccncc1`: the Response with Mus musculus [11] is 27%; with Mus musculus [5], 20%. In addition, the concentration for half-maximal inhibition (IC50) was found to be 6.4 µM in [1] and 22 µM in [3]. The median effective dose (ED50) in the assay on Mus musculus [2] was greater than 20 mg/kg.

Turning to `CN(c1ccncc1)n1cccc1CO`, the values for the IC50 in assay [1] and in assay [3] were 26 µM and 39 µM, respectively. Further, the ED50 with Mus musculus [2] was greater than 20 mg/kg.

Regarding `CN(c1ccncc1)n1ccc(C=O)c1`, the Response with Mus musculus [11] is on record as 47%; with Mus musculus [4], 20%; in the assay on Mus musculus [10] it was 29%; in the assay with Mus musculus [5] it was 33%. In addition, the IC50 in [1] stood at 33 µM; in assay [3], 185 µM. Moreover, the ED50 in the assay with Mus musculus [2] is greater than 20 mg/kg.

As for `Clc1cccn1Nc1ccncc1`, the IC50 in assay [1] worked out at 13 µM; in assay [3], 76.2 µM. Further, the ED50 with Mus musculus [2] is greater than 20 mg/kg.

With `c1ccc(CN(c2ccncc2)n2cccc2)cc1`, the half-maximal inhibitory concentration (IC50) worked out at 3.5 µM in assay [1] and 13.5 µM in assay [3]. The ED50 in the assay with Mus musculus [2] was greater than 20 mg/kg. This compound displayed a Response with Mus musculus [6] of 20%.

On to `CN(c1ccncc1)n1cccc1C=O`, for which the Response is 50% in the assay on Mus musculus [9]; 31% in the assay on Mus musculus [11]; 53% in the assay with Mus musculus [4]; 60% in the assay with Mus musculus [10]; 27% in the assay on Mus musculus [5]; 50% in the assay with Mus musculus [6]. Besides, the results for the IC50 in [1] and in assay [3] were 24 µM and 52 µM, respectively. Moreover, in the assay with Mus musculus [2], the ED50 is greater than 20 mg/kg.

Turning to `CCCCN(c1ccncc1)n1cccc1`, the IC50 in assay [1] was found to be 4 µM; in assay [3], 12.5 µM. The same compound yielded an ED50 with Mus musculus [2] greater than 20 mg/kg. Further, the Response in the assay with Mus musculus [5] is given as 20%.

`CCN(c1ccncc1)n1cccc1`: the IC50 in assay [1] is 9.5 µM; in [3], 120 µM. The compound further yielded an ED50 with Mus musculus [2] greater than 20 mg/kg.

With `CN(c1ccncc1)n1cccc1Cl`, the 50% inhibitory concentration (IC50) in [1] came out at 6.9 µM; in assay [3] it was 43 µM. In the assay on Mus musculus [2], this compound yielded an ED50 greater than 20 mg/kg.

`c1ccn(Nc2ccncc2)c1`: the Response with Mus musculus [9] came to 47%; with Mus musculus [12], 36%; with Mus musculus [4], 21%; with Mus musculus [5], 21%. The IC50 stood at 43 µM in assay [1] and 184 µM in assay [3]. This compound yielded a median effective dose (ED50) in the assay with Mus musculus [2] greater than 20 mg/kg.

Consider `CN(c1ccncc1)n1cccc1/C=C/c1ccccc1`, for which the Response with Mus musculus [9] was determined as 20%; in the assay with Mus musculus [11] it was 33%. Further, the results for the IC50 in assay [1] and in assay [3] were 1.6 µM and 17 µM, respectively. In addition, the ED50 with Mus musculus [2] is greater than 20 mg/kg.

Consider `CN(C)CCC=C1c2ccccc2CCc2ccccc21` [AMITRIPTYLINE], for which, in the assay with Mus musculus [2], the ED50 came to 1.5 mg/kg. Also, the 50% inhibitory concentration (IC50) in assay [3] amounted to 0.3 µM.

Turning to `C=CCN(c1ccncc1)n1cccc1`, the IC50 amounted to 6.9 µM in assay [1] and 27 µM in [3]. This compound gave an ED50 with Mus musculus [2] greater than 20 mg/kg. The Response in the assay on Mus musculus [5] and in the assay on Mus musculus [6] was 20% each time.

For the compound `CN(c1ccncc1)n1cccc1C#N`, the Response came to 20% in the assay with Mus musculus [11] and 40% with Mus musculus [10]. Besides, the values for the 50% inhibitory concentration (IC50) in [1] and in assay [3] were 24 µM and 295 µM, respectively. The compound also had an ED50 in the assay with Mus musculus [2] greater than 20 mg/kg.

In the case of `CN(c1ccncc1)n1cccc1`, the values for the Response with Mus musculus [12] and in the assay on Mus musculus [13] were 1% and 29%, respectively. Moreover, the half-inhibitory concentration (IC50) in assay [1] turned out to be 13 µM; in assay [3] it was 70 µM. Moreover, in the assay on Mus musculus [2], the ED50 was greater than 20 mg/kg.

Take `CCCN(c1ccncc1)n1cccc1C=O`: the 50% inhibitory concentration (IC50) in assay [1] came to 14 µM; in assay [3], 51 µM. In addition, in the assay with Mus musculus [2], the ED50 was greater than 20 mg/kg.

As to `CCN(c1ccncc1)n1cccc1Cl`, the figures for the Response with Mus musculus [9], in the assay with Mus musculus [10] and in the assay with Mus musculus [5] were 27%, 36% and 20%, respectively. In addition, the IC50 in assay [1] turned out to be 5.4 µM; in assay [3], 33 µM. This compound also yielded an ED50 in the assay with Mus musculus [2] greater than 20 mg/kg.

As to `CN(c1ccncc1)n1cccc1CCc1ccccc1`, the figures for the IC50 in assay [1] and in assay [3] were 3 µM and 8.1 µM, respectively. The compound further had an ED50 in the assay with Mus musculus [2] greater than 20 mg/kg. The Response with Mus musculus [4] was 33%.

Take `CCCN(c1ccncc1)n1ccc(C=O)c1`: the results for the 50% inhibitory concentration (IC50) in [1] and in assay [3] were 11 µM and 138 µM, respectively. Besides, in the assay on Mus musculus [2], the ED50 is greater than 20 mg/kg.

As to `CC(O)c1cccn1N(C)c1ccncc1` (centres undefined), the IC50 was 23 µM in assay [1] and 173 µM in assay [3]. This compound gave an ED50 in the assay on Mus musculus [2] greater than 20 mg/kg.
